# From the METLIN SMRT retention time set (Domingo-Almenara et al. 2019)
# Test: gradient 5% acetonitrile 3 min, to 50% in 2 min, to 85% in 15 min, held 3 min, 100 µL/min
# Conditions: column: Zorbax Extend-C18 2.1 x 50 mm; eluents: water / acetonitrile, 0.1% formic acid
# Method in brief: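 Over 3 months, pure standards in mixtures of ~100 molecules were run by HPLC coupled to a quadrupole time-of-flight mass spectrometer in positive and negative ionization mode. The column was a Zorbax Extend-C18 (2.1 × 50 mm, 1.8 μm) at 100 μL/min, eluted with water and acetonitrile each holding 0.1% formic acid, with 40 μL dead and 900 μL dwell volumes. Retention time was determined from adduct peaks chosen by software and checked manually.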
row,SMILES,RP-LC retention time
1,COc1ccc(-c2csc3c(=O)n(Cc4ccc(F)cc4)cnc23)cc1OC,951 s
2,N#Cc1cccc(N2C=C(C(=O)N3CCCC3)S(=O)(=O)c3ccc(F)cc32)c1,752 s
3,COC(=O)c1ccccc1NC(=O)CSc1cc(-n2nc(C)cc2C)ncn1,1130 s
4,COc1cc(-c2nc3ccc(Cl)cn3c2Nc2ccc3c(c2)OCO3)ccc1O,679 s
5,O=S(=O)(Cc1ccccc1)N1CCCC(c2nn[nH]n2)C1 (stereo not given),706 s
6,O=C(NCC(O)c1ccsc1)c1ccc2c(c1)OCO2 (stereo not given),652 s
7,O=C(Cc1ccc([N+](=O)[O-])cc1)NCc1ccc2[nH]c3c(c2c1)CCCC3,849 s
8,Cc1ccc(NC(=O)Cn2c(C)nc3c(sc4nc(-c5ccccc5)ccc43)c2=O)cc1F,1110 s
9,Cc1nn2c(CNS(=O)(=O)c3c(C)nn(C)c3C)c(C)nc2s1,596 s
10,Cc1ccccc1Nc1c(-c2ccc(N3CCOCC3)cc2)nc2ccccn12,712 s
11,Cc1ccc(NC(=O)C2CC(=O)N(c3ccc4oc(C)nc4c3)C2)c(F)c1 (stereo not given),741 s
12,CCc1nc2c(c(=O)n1CC(=O)NCCCc1ccccc1)CN(Cc1ccccc1)CC2,1050 s
13,CC(C)Oc1ccc(CN2CC(c3nc(-c4ccsc4)nn3C)C2)cc1,696 s
14,Cc1oc(C2CCN(S(=O)(=O)c3ccccc3F)CC2)nc1C(=O)N1CCCC1,886 s
15,Cn1ncc2c(N3CCSCC3)nc(C(=O)NCc3ccccn3)nc21,592 s
16,CC1CCCN(CCCNC(=O)CN2C(=O)CCc3cc(S(=O)(=O)N4CCCCC4)ccc32)C1 (stereo not given),638 s
17,OC(COCc1ccc(Cl)cc1)CN1CCN(c2ccccn2)CC1 (stereo not given),567 s
18,COc1cccc(-c2noc(C3CCCN3C(=O)NC(C)C)n2)c1 (stereo not given),802 s
19,COC(=O)c1c(NCc2ccccc2OC)c2cccc(Cl)c2[nH]c1=O,820 s
20,COc1ccc(N2CCN(c3cc(SCC(=O)Nc4ccccc4Cl)ncn3)CC2)cc1,1110 s
21,Cc1cccc(-c2noc(Cn3c(=O)n(-c4cccc(F)c4)c(=O)c4sccc43)n2)c1,1030 s
22,COc1ccc(N2CCN(C(=O)C3CCN(c4cncnc4N(C)C)CC3)CC2)cc1,602 s

row,SMILES,RP-LC retention time
1,CCCN(CC1CCOC1)S(=O)(=O)c1ccc(C)c(Cl)c1 (stereo not given),1050 s
2,Cn1c(=O)c(N2CCC(NC(=O)Nc3cccc(C(F)(F)F)c3)CC2)nc2ccccc21,1010 s
3,Cc1cccc(NC(=O)N2CCCC2C(=O)NC(C)C)c1 (stereo not given),690 s
4,Cc1cc(C)n(CCC(=O)N2C[C@H]3C[C@H](C2)[C@H]2CCCC(=O)N2C3)n1,600 s
5,COCCN(Cc1ccc(Cl)cc1)Cc1cc(=O)n2ccc(C)cc2n1,657 s
6,O=C(Nc1cc(F)ccc1F)c1ccc(=O)n(Cc2cccc(C(F)(F)F)c2)c1,861 s
7,CNC(=O)c1cccc(Nc2c(-c3ccc(Cl)cc3)nc3cnccn23)c1,692 s
8,Cc1cccc(CN2CCCn3nc(C(=O)NCCc4cccs4)cc3C2=O)c1,820 s
9,CC(C)NC(=O)c1ccc2c(c1)Sc1ncccc1C(=O)N2C(C)C,736 s
10,C[C@H]1CC2C3CCC4=CC(=O)C=C[C@]4(C)[C@@]3(Cl)[C@@H](O)C[C@]2(C)[C@@]1(O)C(=O)CO (stereo not given in full),832 s
11,O=C([C@@H]1C[C@H](F)CN1C(=O)c1ccoc1)N1CCCCC1,576 s
12,CCOC(=O)c1nc(N2CCN(c3cccc(OC)c3)CC2)c2c(C)noc2n1,960 s
13,Cc1nnc(-c2ccc3ccn(CC(=O)NCCc4ccc(S(N)(=O)=O)cc4)c3c2)o1,648 s
14,CCN1CCN(C(=O)C2CCN(S(=O)(=O)c3c(C)nn(-c4ccccc4)c3C)CC2)CC1,621 s
15,CCC(C(=O)N1CCN(c2ccc(-c3ccc4c(c3)OCO4)nn2)CC1)c1ccccc1 (stereo not given),723 s
16,Cc1ccc2oc(-c3nnc(C(=O)NCCCN4CCCC4)o3)c(C)c2c1,688 s
17,O=C(Cc1ccccc1Cl)NCC(O)c1ccc(C(F)(F)F)cc1 (stereo not given),806 s
18,COc1ccc(NC(=O)N(C)CCc2noc(COc3ccc(Cl)cc3)n2)cc1,1010 s
19,O=C(C1CCCN(c2ccc(-c3ccccc3)nn2)C1)N1CCN(C2CCCCC2)CC1 (stereo not given),597 s
20,COc1ccc(C(=O)N2CCC(COc3ccc(C(=O)NC(C)C)cc3)CC2)c(C)c1,851 s
21,Cc1ccc(Nc2c(-c3ccccc3)nc3cccc(C)n23)cc1,757 s
22,O=C1CN(C(=O)COc2ccccc2)C(c2ccccc2)c2cc(F)ccc2N1 (stereo not given),826 s

row,SMILES,RP-LC retention time
1,CCn1ccc2sc(C)c(C(=O)NCc3ccc(OC)cc3OC)c2c1=O,814 s
2,Cc1cc(=O)n(CC(=O)Nc2ccc(Br)cc2F)c(N2CCN(c3ccccc3)CC2)n1,978 s
3,Cc1ccc(NS(=O)(=O)c2c(C)c(-c3nnc(C4CCC4)o3)n(C)c2C)cc1,918 s
4,COc1ccccc1CNC(=O)C1CCCN(c2nn3c(=O)c4c(nc3s2)CCCC4)C1 (stereo not given),737 s
5,Cc1ccc(Nc2c(-c3ccc(O)cc3)nc3ccc(Br)cn23)cc1,726 s
6,COCCn1nnnc1C1CC2(CCOCC2)C(=O)N1Cc1ccc(Cl)cc1 (stereo not given),904 s
7,COc1ccc2[nH]c(C(=O)N3CCN(C(=O)c4ccco4)CC3)cc2c1,706 s
8,O=C(NCc1cccs1)c1ccc2ncnc(N3CCCCC3)c2c1,644 s
9,COc1cccc(CN2CCC3(CCC3O)CC2)n1 (stereo not given),569 s
10,O=C(NCC12CCC=C1N(CC1CC1)C(=O)CC2)Nc1cccc(F)c1 (stereo not given),876 s
11,CC1CCN(c2nccnc2Oc2ccc(C(=O)Nc3ccc4c(c3)OCCO4)cc2)CC1,1080 s
12,Cc1ccc(-n2c(=O)c3c(cc(C)n3C)n(CC(=O)Nc3c(C)cccc3C)c2=O)cc1,912 s
13,CCc1nc2ccccc2n1CC(O)COc1cc(C)cc(C)c1 (stereo not given),733 s
14,O=C(Nc1cccc(F)c1)C1CC(=O)N(CCc2c[nH]c3ccc(F)cc23)C1 (stereo not given),799 s
15,O=C(NCCCN1CCOCC1)c1cc(-c2ccccn2)nc2ccccc12,592 s
16,O=C(Cn1cnc2nc(N3CCCC(C(=O)NC4CC4)C3)sc2c1=O)Nc1ccc(F)cc1 (stereo not given),672 s
17,COc1ccc(OC)c(CNC(=O)CCC(=O)N2CCCn3nc(-c4cccn4C)cc32)c1,755 s
18,CC(=O)c1ccc(S(=O)(=O)NCCC2CCN(C(=O)c3ccccc3)CC2)cc1,773 s
19,CC1CCN(C(=O)CN2C(=O)C3CCCCN3c3ccc(C(=O)N(C)C)cc32)CC1 (stereo not given),752 s
20,CCCC(NC(=O)c1cccc(C)c1)C(=O)Nc1nc2ccccc2[nH]1 (stereo not given),715 s
21,Fc1ccc(-c2nnc(Cc3nc(-c4cccc(C(F)(F)F)c4)no3)o2)cc1,1110 s
